Measurements reported in the NIST ThermoML archive (doi:10.1021/acs.jced.5b01075).
Numbers after ± are expanded uncertainties.

Experiment: xn = mol fraction of the nth substance listed
Details: for viscosity: 100 kPa, Liquid, Concentric cylinders viscometry; for surface tension liquid-gas: 294.2 K, Pendant drop shape

## C1CC[C@H]2CCCC[C@@H]2C1 [trans-decahydronaphthalene] + c1ccc2c(c1)CCCC2
293.15 K, x2 = 0.1044
  viscosity: 2.07 ± 0.02 mPa·s
293.15 K, x2 = 0.2075
  viscosity: 2.03 ± 0.02 mPa·s
293.15 K, x2 = 0.3094
  viscosity: 2.02 ± 0.02 mPa·s
293.15 K, x2 = 0.4109
  viscosity: 2 ± 0.02 mPa·s
293.15 K, x2 = 0.5112
  viscosity: 2.02 ± 0.02 mPa·s
293.15 K, x2 = 0.6106
  viscosity: 2.04 ± 0.02 mPa·s
293.15 K, x2 = 0.7093
  viscosity: 2.07 ± 0.02 mPa·s
293.15 K, x2 = 0.807
  viscosity: 2.11 ± 0.03 mPa·s
293.15 K, x2 = 0.9039
  viscosity: 2.17 ± 0.03 mPa·s
x2 = 0.1044
  surface tension liquid-gas: 30.5 ± 0.4 mN/m
x2 = 0.2075
  surface tension liquid-gas: 31 ± 0.4 mN/m
x2 = 0.3094
  surface tension liquid-gas: 31.4 ± 0.4 mN/m
x2 = 0.4109
  surface tension liquid-gas: 32.1 ± 0.4 mN/m
x2 = 0.5112
  surface tension liquid-gas: 32.3 ± 0.4 mN/m
x2 = 0.6106
  surface tension liquid-gas: 32.9 ± 0.4 mN/m
x2 = 0.7093
  surface tension liquid-gas: 33.6 ± 0.4 mN/m
x2 = 0.807
  surface tension liquid-gas: 34.1 ± 0.6 mN/m
x2 = 0.9039
  surface tension liquid-gas: 35 ± 0.4 mN/m
303.15 K, x2 = 0.1044
  viscosity: 1.74 ± 0.02 mPa·s
303.15 K, x2 = 0.2075
  viscosity: 1.71 ± 0.02 mPa·s
303.15 K, x2 = 0.3094
  viscosity: 1.7 ± 0.02 mPa·s
303.15 K, x2 = 0.4109
  viscosity: 1.68 ± 0.02 mPa·s
303.15 K, x2 = 0.5112
  viscosity: 1.69 ± 0.02 mPa·s
303.15 K, x2 = 0.6106
  viscosity: 1.71 ± 0.02 mPa·s
303.15 K, x2 = 0.7093
  viscosity: 1.73 ± 0.02 mPa·s
303.15 K, x2 = 0.807
  viscosity: 1.75 ± 0.02 mPa·s
303.15 K, x2 = 0.9039
  viscosity: 1.8 ± 0.02 mPa·s
313.15 K, x2 = 0.1044
  viscosity: 1.48 ± 0.02 mPa·s
313.15 K, x2 = 0.2075
  viscosity: 1.46 ± 0.02 mPa·s
313.15 K, x2 = 0.3094
  viscosity: 1.44 ± 0.02 mPa·s
313.15 K, x2 = 0.4109
  viscosity: 1.43 ± 0.02 mPa·s
313.15 K, x2 = 0.5112
  viscosity: 1.44 ± 0.02 mPa·s
313.15 K, x2 = 0.6106
  viscosity: 1.45 ± 0.02 mPa·s
313.15 K, x2 = 0.7093
  viscosity: 1.46 ± 0.02 mPa·s
313.15 K, x2 = 0.807
  viscosity: 1.48 ± 0.02 mPa·s
313.15 K, x2 = 0.9039
  viscosity: 1.51 ± 0.02 mPa·s
323.15 K, x2 = 0.1044
  viscosity: 1.27 ± 0.02 mPa·s
323.15 K, x2 = 0.2075
  viscosity: 1.25 ± 0.02 mPa·s
323.15 K, x2 = 0.3094
  viscosity: 1.24 ± 0.02 mPa·s
323.15 K, x2 = 0.4109
  viscosity: 1.23 ± 0.02 mPa·s
323.15 K, x2 = 0.5112
  viscosity: 1.24 ± 0.02 mPa·s
323.15 K, x2 = 0.6106
  viscosity: 1.25 ± 0.02 mPa·s
323.15 K, x2 = 0.7093
  viscosity: 1.26 ± 0.02 mPa·s
323.15 K, x2 = 0.807
  viscosity: 1.27 ± 0.02 mPa·s
323.15 K, x2 = 0.9039
  viscosity: 1.29 ± 0.02 mPa·s
333.15 K, x2 = 0.1044
  viscosity: 1.1 ± 0.02 mPa·s
333.15 K, x2 = 0.2075
  viscosity: 1.09 ± 0.02 mPa·s
333.15 K, x2 = 0.3094
  viscosity: 1.08 ± 0.02 mPa·s
333.15 K, x2 = 0.4109
  viscosity: 1.07 ± 0.02 mPa·s
333.15 K, x2 = 0.5112
  viscosity: 1.08 ± 0.02 mPa·s
333.15 K, x2 = 0.6106
  viscosity: 1.08 ± 0.02 mPa·s
333.15 K, x2 = 0.7093
  viscosity: 1.09 ± 0.02 mPa·s
333.15 K, x2 = 0.807
  viscosity: 1.1 ± 0.02 mPa·s
333.15 K, x2 = 0.9039
  viscosity: 1.12 ± 0.02 mPa·s
343.15 K, x2 = 0.1044
  viscosity: 0.968 ± 0.021 mPa·s
343.15 K, x2 = 0.2075
  viscosity: 0.957 ± 0.021 mPa·s
343.15 K, x2 = 0.3094
  viscosity: 0.95 ± 0.021 mPa·s
343.15 K, x2 = 0.4109
  viscosity: 0.943 ± 0.021 mPa·s
343.15 K, x2 = 0.5112
  viscosity: 0.947 ± 0.021 mPa·s
343.15 K, x2 = 0.6106
  viscosity: 0.951 ± 0.021 mPa·s
343.15 K, x2 = 0.7093
  viscosity: 0.958 ± 0.021 mPa·s
343.15 K, x2 = 0.807
  viscosity: 0.968 ± 0.022 mPa·s
343.15 K, x2 = 0.9039
  viscosity: 0.982 ± 0.022 mPa·s
353.15 K, x2 = 0.1044
  viscosity: 0.856 ± 0.021 mPa·s
353.15 K, x2 = 0.2075
  viscosity: 0.847 ± 0.021 mPa·s
353.15 K, x2 = 0.3094
  viscosity: 0.842 ± 0.021 mPa·s
353.15 K, x2 = 0.4109
  viscosity: 0.836 ± 0.021 mPa·s
353.15 K, x2 = 0.5112
  viscosity: 0.84 ± 0.021 mPa·s
353.15 K, x2 = 0.6106
  viscosity: 0.843 ± 0.021 mPa·s
353.15 K, x2 = 0.7093
  viscosity: 0.849 ± 0.021 mPa·s
353.15 K, x2 = 0.807
  viscosity: 0.858 ± 0.021 mPa·s
353.15 K, x2 = 0.9039
  viscosity: 0.87 ± 0.021 mPa·s
363.15 K, x2 = 0.1044
  viscosity: 0.765 ± 0.021 mPa·s
363.15 K, x2 = 0.2075
  viscosity: 0.758 ± 0.021 mPa·s
363.15 K, x2 = 0.3094
  viscosity: 0.753 ± 0.021 mPa·s
363.15 K, x2 = 0.4109
  viscosity: 0.749 ± 0.021 mPa·s
363.15 K, x2 = 0.5112
  viscosity: 0.752 ± 0.021 mPa·s
363.15 K, x2 = 0.6106
  viscosity: 0.755 ± 0.021 mPa·s
363.15 K, x2 = 0.7093
  viscosity: 0.76 ± 0.021 mPa·s
363.15 K, x2 = 0.807
  viscosity: 0.768 ± 0.021 mPa·s
363.15 K, x2 = 0.9039
  viscosity: 0.778 ± 0.021 mPa·s
373.15 K, x2 = 0.1044
  viscosity: 0.689 ± 0.021 mPa·s
373.15 K, x2 = 0.2075
  viscosity: 0.683 ± 0.021 mPa·s
373.15 K, x2 = 0.3094
  viscosity: 0.68 ± 0.021 mPa·s
373.15 K, x2 = 0.4109
  viscosity: 0.676 ± 0.021 mPa·s
373.15 K, x2 = 0.5112
  viscosity: 0.679 ± 0.021 mPa·s
373.15 K, x2 = 0.6106
  viscosity: 0.685 ± 0.021 mPa·s
373.15 K, x2 = 0.7093
  viscosity: 0.687 ± 0.021 mPa·s
373.15 K, x2 = 0.807
  viscosity: 0.694 ± 0.021 mPa·s
373.15 K, x2 = 0.9039
  viscosity: 0.703 ± 0.021 mPa·s
